The source of these data is patent EP3293174A1, “CRYSTALLINE SALTS OF BETRIXABAN” (SANDOZ AG, priority 2016, dated 2018).

Common to all, as to format: physicochemical
A short description of data set [1]: Gravimetric moisture sorption/desorption (GMSD) isotherms. The following applies: for hygroscopicity according to the GMSD isotherms: 25 ± 0.1°C, 0 to 95% RH; for water: when measured at 0 to 95% RH and 25 ± 0.1°C. On the procedure: Gravimetric moisture sorption/desorption
Gravimetric moisture sorption/desorption (GMSD) isotherms were recorded with an SPSx-1µ moisture sorption analyzer (ProUmid, Ulm). The measurement cycle was started at ambient relative humidity (RH) of 30%. Relative humidity was then decreased to 5% RH in 5% steps, followed by a further decrease to 3% RH and to 0% RH. For this isotherm, as black filled square with a white x inside is used in the respective figures. Afterwards RH was increased from 0% to 95% RH in a sorption cycle and decreased to 0 % in a desorption cycle in 5% steps. Finally RH was increased to 40% RH in 5% steps. As to the isotherm obtained by the last step, a black filled square with a white star inside is used as symbol in the respective figures.
The time per step was set to a minimum of 2 hours and a maximum of 6 hours. If an equilibrium condition with a constant mass of ± 0.01 % within 1 hour was reached before the maximum time for all examined samples the sequential humidity step was applied before the maximum time of 6 hours. If no equilibrium was achieved the consecutive humidity step was applied after the maximum time of 6 hours. The temperature was 25 ± 0.1°C.

Data set [2] in a line: Determination of the moisture stability (climate chamber, PXRD analysis). On the procedure: Powder X-ray diffraction (PXRD) was performed with a PANalytical X'Pert PRO diffractometer equipped with a theta/theta coupled goniometer in transmission geometry, Cu-Kα1,2 radiation (wavelength 0.15419 nm) with a focusing mirror and a solid state PIXcel detector. Diffractograms were recorded at a tube voltage of 45 kV and a tube current of 40 mA, applying a stepsize of 0.013° 2-Theta with 40s per step (255 channels) in the angular range of 2° to 40° 2-Theta at ambient conditions. Determination of the moisture stability Moisture stability at accelerated stability conditions was performed in a Memmert constant climate chamber HPP110.

The nature of data set [3]: Determination of the solubility in water (solvent addition technique). The note with it: 25 °C, thermodynamic from solid, in water at 25°C, estimated by solvent addition. On the procedure: About 10 mg of crystalline betrixaban salt were weighed out into a vial. Water was added to the vial in aliquots of 500 µL and 200 µL until the salt was dissolved. In between the water additions the samples was sonicated for about 5 min, followed by shaking at 25°C for about 10 to 15 min.

Setting [4] is: listed as crystalline form B of betrixaban hydrobromide, hydrobromide.
[5] abbreviates: 8 weeks at 40°C and a relative humidity of 75%.
The mark [6] stands for this setting: listed as crystalline form A of betrixaban hydrochloride, hydrochloride.

Where a name gives a salt, the structure may show the parent alone.

Broadly, the solubility is the concentration that dissolves in the medium under given conditions.

Consider `COc1ccc(NC(=O)c2ccc(C(=N)N(C)C)cc2)c(C(=O)Nc2ccc(Cl)cn2)c1` [Betrixaban hydrobromide, form B, betrixaban hydrobromide], for which, in data set [1] (setting [4]), the “hygroscopicity according to the GMSD isotherms” value is “moderately hygroscopic” and the water is given as at most 1.9%. In data set [2] (setting [5]), the “PXRD pattern after storage compared with the initial pattern (moisture stability test)” value was “essentially identical”.
In the case of `COc1ccc(NC(=O)c2ccc(C(=N)N(C)C)cc2)c(C(=O)Nc2ccc(Cl)cn2)c1` [Betrixaban hydrochloride, form A, betrixaban hydrochloride], the solubility in data set [3] is over 5000 µg/mL. In data set [1] (setting [6]), the “hygroscopicity according to the GMSD isotherms” value is listed as “non-hygroscopic” and the water is on record as at most 0.2%. The “PXRD pattern after storage compared with the initial pattern (moisture stability test)” value in data set [2] (setting [5]) is given as “essentially identical”.
`COc1ccc(NC(=O)c2ccc(C(=N)N(C)C)cc2)c(C(=O)Nc2ccc(Cl)cn2)c1` [Betrixaban hydrochloride, form B, betrixaban hydrochloride]: the “PXRD pattern after storage compared with the initial pattern (moisture stability test)” value in data set [2] (4 weeks at 40°C and a relative humidity of 75%) is “essentially identical”.
